Data taken from the supplement of paper PMC11208160.

Assay: recombinant barcode read abundance after kanamycin selection (control-corrected) (log10(CPM+1)); higher = more efficient recombination; sequences stand for … in AGTGCAGAGAAAATCGGCCAGTTTTCTCTGCCTGCAGTCCGCATGCCGT…AGATTTATGCAGCGGACTGCCTTTCTCCCAAAGTGATAAACCGGACAGTATCATGGACCGGTTTTCCCGGTAATCCGTATTTGCAAGGTTGGTTTCACT; site = the 11-nt target
Summary of the method: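 Each value is log10(CPM+1). It describes recombination efficiency, taken as averaged, control-corrected counts per million of barcodes at recombinant junctions. The pooled E. coli library paired targets with IS621 bridge RNA target-binding loops, was co-electroporated with a donor plasmid, and was plated twice on chloramphenicol/ampicillin LB agar (control) and twice on chloramphenicol/ampicillin/kanamycin containing 0.1 mM IPTG.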
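Further: IS621 recombinase and bridge RNA in Escherichia coli cells.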

Sequence	recombinant barcode read abundance (log10)
AGTACTCCTTGGGTTCTAACCTGTTGCTG (site AGTACTCCTCA)	0.172
AGTATAACTTGGGTTCTAACCTGTTGCTG (site AGTATAACTCA)	0.24
AGTATAACTTGGGTTCTAACCTGTTGCTG (site GTGTACCCTGT)	0.178
AGTCATTCTTGGGTTCTAACCTGTTGCAT (site AGTCAGTCTAC)	0.166
AGTCATTCTTGGGTTCTAACCTGTTGCAT (site AGTCATTCTAT)	0.45
AGTCCCGCTTGGGTTCTAACCTGTTGCCA (site AGTCCCGCTTG)	1.67
AGTCCCGCTTGGGTTCTAACCTGTTGCCA (site GCATATACTAC)	0.212
AGTCCTACTTGGGTTCTAACCTGTTGCAG (site AGGCTTACTCT)	0.234
AGTCCTACTTGGGTTCTAACCTGTTGCAG (site AGTCCTACTCT)	0.794
AGTCGGACTTGGGTTCTAACCTGTTGCAC (site AGTCGGACTGT)	0.846
AGTCGGACTTGGGTTCTAACCTGTTGCAC (site CACGATCCTAA)	0.0668
AGTCTCGCTTGGGTTCTAACCTGTTGCGG (site AGTATCGCTCC)	0.0167
AGTCTCGCTTGGGTTCTAACCTGTTGCGG (site AGTCTCGCTCC)	0.345
AGTCTCGCTTGGGTTCTAACCTGTTGCGG (site AGTGTCGCTCC)	0.0171
AGTCTCGCTTGGGTTCTAACCTGTTGCGG (site AGTTTCGCTCC)	0.0153
AGTCTCTCTTGGGTTCTAACCTGTTGCCT (site AGTCTCTCTAG)	0.688
AGTCTCTCTTGGGTTCTAACCTGTTGCCT (site AGTGACTCTAG)	0.0251
AGTCTCTCTTGGGTTCTAACCTGTTGCTA (site AGTCTCTCTCG)	0.128
AGTCTCTCTTGGGTTCTAACCTGTTGCTA (site AGTCTCTCTTA)	1.21
AGTGAAGCTTGGGTTCTAACCTGTTGCAC (site AGTGAAGCTGT)	2.33
AGTGAAGCTTGGGTTCTAACCTGTTGCAC (site CACTTCCCTTC)	0.298
AGTGAGCCTTGGGTTCTAACCTGTTGCCT (site AGTAAGCCTAG)	0.344

Sequence	recombinant barcode read abundance (log10)
AGTGAGCCTTGGGTTCTAACCTGTTGCCT (site AGTCAGCCTAG)	0.0584
AGTGAGCCTTGGGTTCTAACCTGTTGCCT (site AGTGAGCCTAG)	1.26
AGTGAGCCTTGGGTTCTAACCTGTTGCCT (site AGTTAGCCTAG)	0.0633
AGTGGACCTTGGGTTCTAACCTGTTGCCC (site AGTGGACCTGG)	1.86
AGTGGACCTTGGGTTCTAACCTGTTGCCC (site TCCCATACTAT)	0.0634
AGTGGAGCTTGGGTTCTAACCTGTTGCCT (site AGGGGATCTAG)	0.0601
AGTGGAGCTTGGGTTCTAACCTGTTGCCT (site AGTGGAGCTAG)	2.27
AGTGGGACTTGGGTTCTAACCTGTTGCCA (site AGTGGGACTTG)	1.56
AGTGGGACTTGGGTTCTAACCTGTTGCCA (site GGTGAGACTTG)	0.0594
AGTTAGTCTTGGGTTCTAACCTGTTGCCA (site AGTCAGTCTTG)	0.0961
AGTTAGTCTTGGGTTCTAACCTGTTGCCA (site AGTTAGTCTTG)	0.0604
AGTTCGACTTGGGTTCTAACCTGTTGCCT (site AATTCGACTAG)	0.0143
AGTTCGACTTGGGTTCTAACCTGTTGCCT (site ACTTCGACTAG)	0.0163
AGTTCGACTTGGGTTCTAACCTGTTGCCT (site AGTTCGACTAG)	0.429
AGTTCGACTTGGGTTCTAACCTGTTGCCT (site ATTTCGACTAG)	0.234
AGTTCGCCTTGGGTTCTAACCTGTTGCTA (site AGTGCGCCTTA)	0.317
AGTTCGCCTTGGGTTCTAACCTGTTGCTA (site AGTTCGCCTTA)	0.012
AGTTGGCCTTGGGTTCTAACCTGTTGCAG (site AGTTGGCCTCT)	0.39
AGTTGGCCTTGGGTTCTAACCTGTTGCAG (site CTAACTACTAA)	0.313
AGTTGGGCTTGGGTTCTAACCTGTTGCTG (site AGCTGGGCTCC)	0.154
AGTTGGGCTTGGGTTCTAACCTGTTGCTG (site AGTTGGGCTCA)	1.02
ATAAAACCTTGGGTTCTAACCTGTTGCCT (site ATAAAACCTAG)	1.23

Sequence	recombinant barcode read abundance (log10)
ATAAAACCTTGGGTTCTAACCTGTTGCCT (site CTAAAACCTAG)	0.64
ATAAAACCTTGGGTTCTAACCTGTTGCCT (site GTAAAACCTAG)	0.114
ATAAAACCTTGGGTTCTAACCTGTTGCCT (site TTAAAACCTAG)	0.244
ATAAAGCCTTGGGTTCTAACCTGTTGCCT (site ATAAAGCCTAG)	2.05
ATAAAGCCTTGGGTTCTAACCTGTTGCCT (site ATAAGGCCTAG)	0.0177
ATAAATCCTTGGGTTCTAACCTGTTGCCT (site ATAAATCCTAG)	0.632
ATAAATCCTTGGGTTCTAACCTGTTGCCT (site CTAAATCCTAG)	0.126
ATAAATCCTTGGGTTCTAACCTGTTGCCT (site GTAAATCCTAG)	0.0609
ATAAATCCTTGGGTTCTAACCTGTTGCCT (site TTAAATCCTAG)	0.0804
ATAACTACTTGGGTTCTAACCTGTTGCCA (site ATAACTACTTG)	0.462
ATAACTACTTGGGTTCTAACCTGTTGCCA (site ATGTCTACTTG)	0.299
ATACAATCTTGGGTTCTAACCTGTTGCCT (site ATACAATCTAG)	1.13
ATACAATCTTGGGTTCTAACCTGTTGCCT (site CTACAATCTAG)	0.127
ATACAATCTTGGGTTCTAACCTGTTGCCT (site GTACAATCTAG)	0.0425
ATACAATCTTGGGTTCTAACCTGTTGCCT (site TTACAATCTAG)	0.202
ATACCATCTTGGGTTCTAACCTGTTGCCT (site ATACCATCTAG)	0.031
ATACCATCTTGGGTTCTAACCTGTTGCCT (site ATCCCATCTAG)	0.173
ATACCATCTTGGGTTCTAACCTGTTGCCT (site ATGCCATCTAG)	0.855
ATACCATCTTGGGTTCTAACCTGTTGCCT (site ATTCCATCTAG)	0.34
ATACGGACTTGGGTTCTAACCTGTTGCAG (site ATACGGACTCT)	2.77
ATACGGACTTGGGTTCTAACCTGTTGCAG (site ATATGTACTCT)	0.198
ATACGTTCTTGGGTTCTAACCTGTTGCAT (site ATACGTTCTAT)	1.12
